“And” between values parts separate entries of the source, which are not always exact repeats. Identical values can stand only once. “Also recorded” adds a separate entry of the source.
Key:
Assay type in all cases: physicochemical
[1] = Chemical stability by HPLC-UV at 275 nm and 254 nm (Table 9)
Experimental: High Pressure Liquid Chromatography (HPLC) data were obtained according to Tables 6 or 7, below:
A standard stock was dissolved with diluent in a volumetric flask (e.g., 25 mg in 25 mL). This stock was vortexed and sonicated 10 sec to dissolve, and then diluted 1:10, 1:4, and 1:2 either in volumetric flasks or in HPLC vials to generate a standard curve. […] Where appropriate, a blank was created to accurately replicate the matrix of the analytical sample, and peaks appearing in the blank were identified before integration and quantification using Chemstation software.
The chemical stability of Succinate Form A was determined using HPLC-UV at 275 nm and 254 nm.
The chemical stability of Form G was determined using HPLC-UV at 275 nm and 254 nm.

[2] = Hygroscopicity evaluation by Dynamic Vapor Sorption (DVS) with XRPD of the solids after DVS; settings: for behaviour at high humidity (DVS): >60% RH; for behaviour at high humidity (DVS) / hygroscopicity (DVS): 25° C.; for solid form after the DVS test: XRPD of solids after DVS; for hygroscopicity (DVS): absorption up to 80% RH
Experimental: Dynamic Vapor Sorption (DVS) was obtained using a Surface Measurement Systems (SMS) DVS Intrinsic. The relative humidity at 25° C. were calibrated against deliquescence point of LiCl, Mg (NO3)2 and KCl.

[3] = Aqueous solubility estimation of Compound 2 Form G, Form O and Form I at RT (Example 13, Table 27); settings: for Observation Initial / Observation 2 hrs: about 3 mg in 50 μL water; for Observation 2 hrs: stirred 2 hrs
Experimental: Aqueous solubility tests at RT were conducted on the two potential anhydrates, Form G and O, and the hydrated Form I. About 3 mg of each form was weighed into a 2-mL vial. […] of water was added and stirred thoroughly at RT with the speed of 800 RPM.

[4] = Slurry turnover of Compound 2 Form B, Form I and Form G (Example 11, Table 25); settings: 24 hours
Experimental: To further study the form identity of Form B and Form I, slurry turnover experiments were performed in two solvents with the addition of Form G. Form B was dissolved in IPAc and MTBE respectively to get saturated solutions. Similar mass of Form B, G and I were weighed into a 2-mL vial, upon which the corresponding saturated solution was added to give the slurry, which was stirred at RT or 50° C. After slurry for 24 hours, the solids obtained were analyzed by XRPD.

[5] = Critical aw between Compound 2 Form G and Form I, slurry turnover in H2O/IPAc (Example 12, Table 26); settings: for Final Form: 24 hrs
Experimental: To investigate the critical aw between hydrated Form I and the stable anhydrate, Form G, slurry turnover of Form I and Form G was conducted in a co-solvent system (H2O/IPAc) with different aw at RT and 50° C. Similar mass of Form G and Form I were added into a 2-mL vial, followed by adding solvent and stirring at RT or 50° C. for 24 hrs. The solids obtained were analyzed by XRPD to confirm the form change.

[6] = Slurry competition between Compound 2 Form G and Form O for stability evaluation (Example 10, Table 24); settings: 24 hours
Experimental: The slurry competition experiments between the two anhydrates, Form G and Form O, were performed in two solvents, IPAc and MTBE, at RT and 50° C. for stability evaluation. Form O was dissolved in IPAc and MTBE respectively to get saturated solutions. Then, similar masses of Form G and Form O were added into a 2-mL vial, upon which the corresponding saturated solution was added to give the slurry, which was stirred at RT or 50° C. for 24 hours. The solids collected were analyzed by XRPD to confirm the form change.

For C[C@H]1CCc2c(ccc(-c3cnn(C4CCNCC4)c3)c2OC2CCC2)N1C(=O)C1CC1.O=C(O)CCC(=O)O [G], which “% Claim (275 nm)” value ([1]; 25° C./60% RH) is on record?
Its value is 104% and 106% and 107% and 103%.

What about the “% Purity (275 nm)” value ([1]; 25° C./60% RH) of the same molecule?
The value was 98.84% and 98.86%.

And the “% Claim (275 nm)” value ([1]; 40° C./75% RH)?
The value was 106% and 96.3% and 101%.

And the “% Purity (275 nm)” value ([1]; 40° C./75% RH)?
The value was 98.51% and 98.33% and 97.37% and 96.72%.

What about the “% Claim (275 nm)” value ([1]; 50° C.) of the same molecule?
The value was 100% and 101% and 104%.

And the “% Purity (275 nm)” value ([1]; 50° C.)?
Its value is 98.69% and 97.37% and 97.79%.

What about the “% Claim (275 nm)” value ([1]; 50° C.*) of the same molecule?
Its value is 98.1%.

What about the “% Purity (275 nm)” value ([1]; 50° C.*) of the same molecule?
Its value is 94.24%.

And the “% Claim (275 nm)” value ([1]; Post DVS)?
Its value is 73.5%.

And the “% Purity (275 nm)” value ([1]; Post DVS)?
Its value is 98.91%.

What about the “% Claim (275 nm)” value ([1]; RT) of the same molecule?
The value was 106% and 103% and 107%.

And the “% Purity (275 nm)” value ([1]; RT)?
The value was 98.85% and 98.88% and 98.82% and 98.86%.

What about the “% Claim (275 nm)” value ([1]; initial) of the same molecule?
Its value is 102%.

What about the “% Purity (275 nm)” value ([1]; initial) of the same molecule?
The value was 98.84%.

Which “behaviour at high humidity (DVS)” value [2] does the source give for C[C@H]1CCc2c(ccc(-c3cnn(C4CCNCC4)c3)c2OC2CCC2)N1C(=O)C1CC1.O=C(O)/C=C/C(=O)O [Fumarate Form B] here?
Its value is “deliquescent”.

What about the “solid form after the DVS test” value [2] of the same molecule?
Its value is “amorphous or jelly solids”.

With C[C@H]1CCc2c(ccc(-c3cnn(C4CCNCC4)c3)c2OC2CCC2)N1C(=O)C1CC1.O=C(O)CCC(=O)O [Form O, (S)-(5-cyclobutoxy-2-methyl-6-(1-(piperidin-4-yl)-1H-pyrazol-4-yl)-3,4-dihydroquinolin-1(2H)-yl)(cyclopropyl)methanone succinate] as the molecule, how does the “solid form after the DVS test” value ([2]; succinate) read?
The value was “amorphous”.

What about the “hygroscopicity (DVS)” value ([2]; succinate) of the same molecule?
The value was “highly hygroscopic; also recorded: high hygroscopicity”.

And the “Observation Initial” value [3]?
The value was “Little solid”.

And the “Observation 2 hrs” value [3]?
Its value is “Clear”.

And the solubility at 2 h ([3]; thermodynamic from solid, water, stirring 2 hrs at 800 RPM)?
Its solubility at 2 h is greater than 60 mg/mL.

Which results are given for C[C@H]1CCc2c(ccc(-c3cnn(C4CCNCC4)c3)c2OC2CCC2)N1C(=O)C1CC1.O=C(O)CCC(=O)O [Form M, (S)-(5-cyclobutoxy-2-methyl-6-(1-(piperidin-4-yl)-1H-pyrazol-4-yl)-3,4-dihydroquinolin-1(2H)-yl)(cyclopropyl)methanone succinate]?
solid form after the DVS test ([2]; succinate): amorphous; hygroscopicity (DVS) ([2]; succinate): highly hygroscopic; also recorded: high hygroscopicity

Which results are given for C[C@H]1CCc2c(ccc(-c3cnn(C4CCNCC4)c3)c2OC2CCC2)N1C(=O)C1CC1.O=C(O)CCC(=O)O [Form B, (S)-(5-cyclobutoxy-2-methyl-6-(1-(piperidin-4-yl)-1H-pyrazol-4-yl)-3,4-dihydroquinolin-1(2H)-yl)(cyclopropyl)methanone succinate]?
solid form after the DVS test ([2]; succinate): amorphous; hygroscopicity (DVS) ([2]; succinate): highly hygroscopic; also recorded: high hygroscopicity

With C[C@H]1CCc2c(ccc(-c3cnn(C4CCNCC4)c3)c2OC2CCC2)N1C(=O)C1CC1.O=C(O)/C=C/C(=O)O [Fumarate Form C] as the molecule, how does the “behaviour at high humidity (DVS)” value [2] read?
Its value is “deliquescent”.

What about the “solid form after the DVS test” value [2] of the same molecule?
The value was “amorphous or jelly solids”.

With C[C@H]1CCc2c(ccc(-c3cnn(C4CCNCC4)c3)c2OC2CCC2)N1C(=O)C1CC1.O=C(O)CCC(=O)O [Form B, G and I] as the molecule, how does the “Results (solid form after slurry turnover, XRPD)” value ([4]; IPAc, 50° C.) read?
The value was “Form G”.

And the “Results (solid form after slurry turnover, XRPD)” value ([4]; IPAc, RT)?
Its value is “Form G”.

And the “Results (solid form after slurry turnover, XRPD)” value ([4]; MTBE, 50° C.)?
Its value is “Form G”.

And the “Results (solid form after slurry turnover, XRPD)” value ([4]; MTBE, RT)?
The value was “Form G”.

With C[C@H]1CCc2c(ccc(-c3cnn(C4CCNCC4)c3)c2OC2CCC2)N1C(=O)C1CC1.O=C(O)CCC(=O)O [Form I, (S)-(5-cyclobutoxy-2-methyl-6-(1-(piperidin-4-yl)-1H-pyrazol-4-yl)-3,4-dihydroquinolin-1(2H)-yl)(cyclopropyl)methanone succinate] as the molecule, how does the “stability under ambient conditions compared to Form G” value ([5]; different aw) read?
Its value is “did not appear to have any stability”.

What about the “solid form after the DVS test” value ([2]; succinate) of the same molecule?
The value was “amorphous”.

And the “hygroscopicity (DVS)” value ([2]; succinate)?
Its value is “high hygroscopicity”.

And the “weight change before 60% RH (DVS)” value ([2]; before 60% RH)?
Its value is “minor weight change”.

And the “Observation Initial” value [3]?
The value was “Little solid”.

And the “Observation 2 hrs” value [3]?
Its value is “Clear”.

For C[C@H]1CCc2c(ccc(-c3cnn(C4CCNCC4)c3)c2OC2CCC2)N1C(=O)C1CC1.O=C(O)CCC(=O)O [Form G and Form O], which “Results (solid form after slurry competition, XRPD)” value ([6]; IPAc, 50° C.) is on record?
The value was “Form G”.

And the “Results (solid form after slurry competition, XRPD)” value ([6]; IPAc, RT)?
Its value is “Form G”.

And the “Results (solid form after slurry competition, XRPD)” value ([6]; MTBE, 50° C.)?
Its value is “Form G”.

And the “Results (solid form after slurry competition, XRPD)” value ([6]; MTBE, RT)?
Its value is “Form G”.

For C[C@H]1CCc2c(ccc(-c3cnn(C4CCNCC4)c3)c2OC2CCC2)N1C(=O)C1CC1.O=C(O)CCC(=O)O [Form I and Form G], which “Final Form” value ([5]; H2O/IPAc (2.8:997.2, aw 0.18), 50° C.) is on record?
The value was “Form G”.

What about the “Final Form” value ([5]; H2O/IPAc (2.8:997.2, aw 0.20), RT) of the same molecule?
Its value is “Form G”.

What about the “Final Form” value ([5]; H2O/IPAc (6:994, aw 0.36), 50° C.) of the same molecule?
The value was “Form G”.

And the “Final Form” value ([5]; H2O/IPAc (6:994, aw 0.40), RT)?
The value was “Form G”.

And the “Final Form” value ([5]; H2O/IPAc (10:990, aw 0.55), 50° C.)?
Its value is “Form G”.

And the “Final Form” value ([5]; H2O/IPAc (10:990, aw 0.59), RT)?
Its value is “Form G”.

What about the “Final Form” value ([5]; IPAc, 50° C.) of the same molecule?
The value was “Form G”.

And the “Final Form” value ([5]; IPAc, RT)?
The value was “Form G”.

With C[C@H]1CCc2c(ccc(-c3cnn(C4CCNCC4)c3)c2OC2CCC2)N1C(=O)C1CC1.O=C(O)/C=C/C(=O)O [Fumarate Form A] as the molecule, how does the “behaviour at high humidity (DVS)” value [2] read?
Its value is “deliquescent”.

What about the “solid form after the DVS test” value [2] of the same molecule?
The value was “amorphous or jelly solids”.

With C[C@H]1CCc2c(ccc(-c3cnn(C4CCNCC4)c3)c2OC2CCC2)N1C(=O)C1CC1.O=C(O)CCC(=O)O [A] as the molecule, how does the “% Claim (275 nm)” value ([1]; 25° C./60% RH) read?
The value was 98.3% and 99.8%.

What about the “% Purity (275 nm)” value ([1]; 25° C./60% RH) of the same molecule?
Its value is 98.64% and 98.78%.

What about the “% Claim (275 nm)” value ([1]; initial) of the same molecule?
The value was 95.2%.

What about the “% Purity (275 nm)” value ([1]; initial) of the same molecule?
The value was 98.73%.

What does the source list for C[C@H]1CCc2c(ccc(-c3cnn(C4CCNCC4)c3)c2OC2CCC2)N1C(=O)C1CC1.O=C(O)CCCCC(=O)O [Adipate Form A]?
behaviour at high humidity (DVS) [2]: deliquescent; solid form after the DVS test [2]: amorphous or jelly solids
